From paper PMC2649378 (European Journal of Pharmacology, 2008) come the findings set out here.

Molecules are shown by their SMILES. Numbering of substitutions follows the chain as printed. Several values for one entry are separate records, joined by “and”; a condition that tells them apart may be missing. Equal entries are not always repeated.

One test has as its target T1, 5-HT3A receptors (Mus musculus, UniProt P23979).
T1 construct: expressed in transfected cells; host or cells: Xenopus laevis oocytes injected with cRNA (pGEMHE)
T1 sequence (P23979 24-489): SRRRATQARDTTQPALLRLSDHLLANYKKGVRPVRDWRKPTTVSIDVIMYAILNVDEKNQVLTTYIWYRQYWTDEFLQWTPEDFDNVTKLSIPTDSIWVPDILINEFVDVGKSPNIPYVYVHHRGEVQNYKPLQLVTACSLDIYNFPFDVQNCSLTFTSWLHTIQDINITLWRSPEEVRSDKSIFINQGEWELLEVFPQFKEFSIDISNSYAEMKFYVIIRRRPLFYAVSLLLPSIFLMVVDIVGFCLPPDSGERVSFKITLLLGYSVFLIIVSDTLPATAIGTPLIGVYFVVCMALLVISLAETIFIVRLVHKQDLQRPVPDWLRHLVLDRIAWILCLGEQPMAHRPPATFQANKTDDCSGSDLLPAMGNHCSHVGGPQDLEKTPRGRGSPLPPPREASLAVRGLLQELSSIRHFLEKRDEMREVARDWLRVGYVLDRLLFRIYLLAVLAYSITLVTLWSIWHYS
Kind of test: [3H]granisetron binding to membranes of transfected HEK 293 cells, 5-HT3A receptors. The protocol: (§1) Mouse 5-HT3A (accession number: AY605711) or 5-HT3B (accession number: NM_020274, kindly provided by Ewen Kirkness) subunit cDNAs were cloned into pGEMHE for oocyte expression ([Liman et al., 1992]). cRNA was in vitro transcribed from linearised (NheI) plasmid cDNA template using the mMessage mMachine T7 kit (Ambion, Austin, Texas, USA). Stage V and VI oocytes were injected with 50 ng–100 ng cRNA, and recorded from 1–4 days post-injection. For expression in HEK 293 cells, 5-HT3 receptor subunit cDNAs were cloned into pcDNA3.1 (Invitrogen Ltd., Paisley, UK.). Mutagenesis reactions were performed using the Kunkel method and confirmed by DNA sequencing. Cells were transfected using calcium phosphate precipitation at 80–90% confluency ([Jordan et al., 1996]). Following transfection cells were incubated for 3–4 days before assay.
This was undertaken in HEK 293 cells which provide an established and robust method of studying ligand binding. Methods were as previously described ([Lummis et al., 1993]), with minor modifications. Briefly, transfected HEK 293 cells were washed twice with phosphate buffered saline (PBS) at room temperature and scraped into 1 ml of ice-cold HEPES buffer (10 mM, pH 7.4) containing the following proteinase inhibitors (PI): 1 mM EDTA, 50 μg ml^− 1 soybean trypsin inhibitor, 50 μg/ml bacitracin and 0.1 mM phenylmethylsulphonyl fluoride. […] Competition binding was performed using ligand concentrations from 0.1 μM–10 mM. Reactions were incubated for at least 1 h at 4 °C and terminated by vacuum filtration using a Brandel cell harvester onto GF/B filters pre-soaked in 0.3% polyethyleneimine. Radioactivity was determined by scintillation counting using a Beckman LS6000SC (Fullerton, California, USA). Competition binding data were analyzed by iterative curve fitting (GraphPad Prism v3.02, GraphPad Software, San Diego, California, USA), according to the equation: y=Bmin+Bmax−Bmin/1+10^[L]−logIC50 where Bmin is the lowest total binding, Bmax is the maximum specific binding at equilibrium, [L] is the concentration of competing ligand and IC50 is the concentration of competing ligand that blocks half of the specific bound radioligand. Ki values were estimated from IC50 values using the Cheng–Prusoff equation: Ki=IC50/1+[L]/Kd
where Ki is the equilibrium dissociation constant for binding of the unlabeled antagonist, [L] is the concentration of radioligand and Kd is the equilibrium dissociation constant of the radioligand.

Test [1] deals with T2, N128A mutant 5-HT3A receptors (Mus musculus, UniProt P23979, N128A).
T2 construct: expressed in transfected cells; host or cells: HEK 293 cells (pcDNA3.1); Kunkel mutagenesis
T2 sequence (P23979 24-489 N128A): T1 sequence (P23979 24-489) with N105A
Kind of test: [3H]granisetron competition binding, N128A mutant 5-HT3A receptors. The protocol:
as §1, with “Cells were transfected using calcium phosphate precipitation at 80–90% confluency ([Jordan et al., 1996]). Following transfection cells were incubated for 3–4 days before assay.” left out
(§2) This was undertaken in HEK 293 cells which provide an established and robust method of studying ligand binding. […] Radioactivity was determined by scintillation counting using a Beckman LS6000SC (Fullerton, California, USA). Competition binding data were analyzed by iterative curve fitting (GraphPad Prism v3.02, GraphPad Software, San Diego, California, USA), according to the equation: y=Bmin+Bmax−Bmin/1+10^[L]−logIC50 where Bmin is the lowest total binding, Bmax is the maximum specific binding at equilibrium, [L] is the concentration of competing ligand and IC50 is the concentration of competing ligand that blocks half of the specific bound radioligand. […]

For test [2], the target named is T3, E236A mutant 5-HT3A receptors (Mus musculus, UniProt P23979, E236A).
T3 construct: expressed in transfected cells; host or cells: HEK 293 cells (pcDNA3.1); Kunkel mutagenesis
T3 sequence (P23979 24-489 E236A): T1 sequence (P23979 24-489) with E213A
Kind of test: [3H]granisetron competition binding, E236A mutant 5-HT3A receptors. The method, then: as §1, with “Cells were transfected using calcium phosphate precipitation at 80–90% confluency ([Jordan et al., 1996]). Following transfection cells were incubated for 3–4 days before assay.” left out
as §2

For `NCCc1c[nH]c2ccc(F)cc12` [5-FT, 5-fluorotryptamine], the “Ki relative to the Ki for 5-HT” value on 5-HT3A receptors (5-HT3A receptors, fold greater than 5-HT) is around 10 fold. The Ki on 5-HT3A receptors (Ki, displacement of [3H]granisetron binding, WT 5-HT3A receptors, HEK 293 membranes, 0.5 nM [3H]granisetron, 4 °C) is 800 nM and 830 nM; in test [1], 2430 ± 470 nM; in test [2] it was 1620 ± 410 nM.

In general, Ki refers to the dissociation constant of the complex between target and ligand, obtained from inhibition or displacement.
